From PubChem BioAssay AID248 (DTP/NCI, 2004)
Inconclusive results and toxic doses are left out.

System: L1210 leukemia ip in BDF1 mice, survival T/C
Assay: NCI In Vivo Anticancer Drug Screen. Data for tumor model L1210 Leukemia (intraperitoneal) in B6D2F1 (BDF1) mice
Conditions: endpoint: mean survival time, higher = longer survival
Procedure, shortened: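 Value reflects the ratio of survival in compound-treated mice to survival in vehicle-treated controls, with both groups carrying the same transplanted tumor.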

[1] = dose: 100.0 mg/kg/injection, schedule: Q01DX001 (ip), vehicle: saline
[2] = dose: 100.0 mg/kg/injection, schedule: Q04DX003 (ip), vehicle: saline with Tween-80
[3] = dose: 200.0 mg/kg/injection, schedule: Q01DX001 (ip), vehicle: saline
[4] = dose: 400.0 mg/kg/injection, schedule: Q01DX001 (ip), vehicle: saline
[5] = dose: 100.0 mg/kg/injection, schedule: Q04DX003 (ip), vehicle: Klucel (hydroxypropylcellulose) (HPC)
[6] = dose: 200.0 mg/kg/injection, schedule: Q04DX003 (ip), vehicle: Klucel (hydroxypropylcellulose) (HPC)
[7] = dose: 400.0 mg/kg/injection, schedule: Q04DX003 (ip), vehicle: Klucel (hydroxypropylcellulose) (HPC)
[8] = dose: 100.0 mg/kg/injection, schedule: Q04DX003 (ip), vehicle: saline
[9] = dose: 200.0 mg/kg/injection, schedule: Q04DX003 (ip), vehicle: saline
[10] = dose: 400.0 mg/kg/injection, schedule: Q04DX003 (ip), vehicle: saline
[11] = dose: 100.0 mg/kg/injection, schedule: Q01DX001 (ip), vehicle: carboxymethylcellulose (CMC)
[12] = dose: 200.0 mg/kg/injection, schedule: Q01DX001 (ip), vehicle: carboxymethylcellulose (CMC)
[13] = dose: 400.0 mg/kg/injection, schedule: Q01DX001 (ip), vehicle: carboxymethylcellulose (CMC)

In the case of `O=S(=O)(CS(=O)(=O)Nc1ccccc1)Nc1ccccc1`, the T/C (dose: 25.0 mg/kg/injection, schedule: Q04DX003 (ip), vehicle: saline with Tween-80) was 113 % of control, the T/C (dose: 50.0 mg/kg/injection, schedule: Q04DX003 (ip), vehicle: saline with Tween-80) was 116 % of control and the T/C [1] was 94 % of control. For the same compound, the T/C [2] was 111 % of control, the T/C [3] was 94 % of control and the T/C [4] was 94 % of control.
For `CN=C(N)c1ccc(S(=O)(=O)N=C(N)N)cc1`, the T/C [1] was 96 % of control, the T/C [3] was 98 % of control and the T/C [4] was 100 % of control.
For `CC(C)OC(=O)c1ccc(N)cc1S(N)(=O)=O`, the T/C (dose: 100.0 mg/kg/injection, schedule: Q01DX001 (ip), vehicle: other) was 106 % of control.
With `CC(C)(C)C1CCC(=O)CC1` the T/C (dose: 12.5 mg/kg/injection, schedule: Q04DX002 (ip), vehicle: saline) was 109 % of control, the T/C (dose: 25.0 mg/kg/injection, schedule: Q04DX002 (ip), vehicle: saline) was 106 % of control and the T/C (dose: 50.0 mg/kg/injection, schedule: Q04DX002 (ip), vehicle: saline) was 95 % of control. For the same compound, the T/C (dose: 100.0 mg/kg/injection, schedule: Q04DX002 (ip), vehicle: saline) was 99 % of control.
For `C[N+]1(Cc2ccccc2)C2CCC1C(=O)N(Cc1ccccc1)C2=O` (configuration not stated), the T/C (dose: 75.0 mg/kg/injection, schedule: Q01DX001 (ip), vehicle: saline) was 103 % of control and the T/C (dose: 150.0 mg/kg/injection, schedule: Q01DX001 (ip), vehicle: saline) was 116 % of control.
With `Oc1ccc(Cl)cc1Br` the T/C (dose: 25.0 mg/kg/injection, schedule: Q01DX009 (ip), vehicle: saline with Tween-80) was 100 % of control, the T/C (dose: 50.0 mg/kg/injection, schedule: Q01DX009 (ip), vehicle: saline with Tween-80) was 88 % of control and the T/C (dose: 100.0 mg/kg/injection, schedule: Q01DX009 (ip), vehicle: saline with Tween-80) was 100 % of control.
In the case of `COc1ccc(NC(=O)Nc2cccc(C)c2C)cc1`, the T/C (dose: 100.0 mg/kg/injection, schedule: Q01DX009 (ip), vehicle: gum acacia) was 96 % of control, the T/C (dose: 100.0 mg/kg/injection, schedule: Q04DX003 (ip), vehicle: gum acacia) was 99 % of control and the T/C (dose: 200.0 mg/kg/injection, schedule: Q01DX009 (ip), vehicle: gum acacia) was 97 % of control. For the same compound, the T/C (dose: 200.0 mg/kg/injection, schedule: Q04DX003 (ip), vehicle: gum acacia) was 91 % of control, the T/C (dose: 400.0 mg/kg/injection, schedule: Q01DX009 (ip), vehicle: gum acacia) was 94 % of control and the T/C (dose: 400.0 mg/kg/injection, schedule: Q04DX003 (ip), vehicle: gum acacia) was 89 % of control.
`CC12CCC(=O)C=C1CCC1C2C(=O)CC2(C)C1CCC2(O)C(=O)COC(=O)c1cc([N+](=O)[O-])cc([N+](=O)[O-])c1N1CC1` (configuration not stated) was tested, and the T/C (dose: 60.0 mg/kg/injection, schedule: Q01DX015 (ip), vehicle: saline) was 94 % of control, the T/C (dose: 90.0 mg/kg/injection, schedule: Q01DX015 (ip), vehicle: saline) was 96 % of control and the T/C (dose: 135.0 mg/kg/injection, schedule: Q01DX015 (ip), vehicle: saline) was 92 % of control. The T/C (dose: 200.0 mg/kg/injection, schedule: Q01DX015 (ip), vehicle: saline) was 100 % of control.
For `CCCCCC(C)C1=NC(C)(C)CC(C)O1` (configuration not stated), the T/C (dose: 5.0 mg/kg/injection, schedule: Q04DX003 (ip), vehicle: saline with Tween-80) was 101 % of control, the T/C (dose: 10.0 mg/kg/injection, schedule: Q04DX003 (ip), vehicle: saline with Tween-80) was 95 % of control and the T/C (dose: 20.0 mg/kg/injection, schedule: Q04DX003 (ip), vehicle: saline with Tween-80) was 108 % of control.
In the case of `c1ccc(C2=NC(c3ccccc3)(C3(c4ccccc4)SCCCS3)CO2)cc1` (configuration not stated), the T/C (dose: 75.0 mg/kg/injection, schedule: Q01DX009 (ip), vehicle: Klucel (hydroxypropylcellulose) (HPC)) was 101 % of control, the T/C [5] was 102 % of control and the T/C (dose: 150.0 mg/kg/injection, schedule: Q01DX009 (ip), vehicle: Klucel (hydroxypropylcellulose) (HPC)) was 98 % of control. For the same compound, the T/C [6] was 105 % of control, the T/C (dose: 300.0 mg/kg/injection, schedule: Q01DX009 (ip), vehicle: Klucel (hydroxypropylcellulose) (HPC)) was 90 % of control and the T/C [7] was 102 % of control.
In the case of `CC(=O)OC1C(OC(C)=O)C2C(C)(C)CCCC2(C)C2Cc3occc3C(C)C12` (configuration not stated), the T/C [8] was 120 % of control, the T/C [9] was 117 % of control and the T/C [10] was 103 % of control.
In the case of `CN(C)N=Nc1ccc([N+](=O)[O-])cc1C(N)=O`, the T/C (dose: 100.0 mg/kg/injection, schedule: Q01DX001 (ip), vehicle: saline with Tween-80) was 117 % of control, the T/C (dose: 100.0 mg/kg/injection, schedule: Q01DX007 (ip), vehicle: saline with Tween-80) was 124 % of control and the T/C [2] was 108 % of control. The T/C (dose: 180.0 mg/kg/injection, schedule: Q01DX009 (ip), vehicle: saline with Tween-80) was 170 % of control, the T/C (dose: 200.0 mg/kg/injection, schedule: Q01DX001 (ip), vehicle: saline with Tween-80) was 104 % of control and the T/C (dose: 200.0 mg/kg/injection, schedule: Q04DX003 (ip), vehicle: saline with Tween-80) was 105 % of control. For the same compound, the T/C (dose: 268.0 mg/kg/injection, schedule: Q01DX009 (ip), vehicle: saline with Tween-80) was 167 % of control, the T/C (dose: 400.0 mg/kg/injection, schedule: Q01DX001 (ip), vehicle: saline with Tween-80) was 108 % of control and the T/C (dose: 400.0 mg/kg/injection, schedule: Q01DX007 (ip), vehicle: saline with Tween-80) was 154 % of control. The T/C (dose: 400.0 mg/kg/injection, schedule: Q01DX009 (ip), vehicle: saline with Tween-80) was 122 % of control, the T/C (dose: 400.0 mg/kg/injection, schedule: Q04DX003 (ip), vehicle: saline with Tween-80) was 117 % of control and the T/C (dose: 600.0 mg/kg/injection, schedule: Q01DX009 (ip), vehicle: saline with Tween-80) was 90 % of control.
`CCCCNC=O` was tested, and the T/C (dose: 100.0 mg/kg/injection, schedule: Q01DX009 (ip), vehicle: saline) was 101 % of control, the T/C [8] was 102 % of control and the T/C (dose: 200.0 mg/kg/injection, schedule: Q01DX009 (ip), vehicle: saline) was 106 % of control. For the same compound, the T/C [9] was 93 % of control, the T/C (dose: 400.0 mg/kg/injection, schedule: Q01DX009 (ip), vehicle: saline) was 108 % of control and the T/C [10] was 111 % of control.
With `Cc1ccc2c(c1)C(=O)c1ccccc1C2=O` the T/C (dose: 50.0 mg/kg/injection, schedule: Q01DX001 (ip), vehicle: carboxymethylcellulose (CMC)) was 95 % of control, the T/C [11] was 101 % of control and the T/C (dose: 100.0 mg/kg/injection, schedule: Q04DX002 (ip), vehicle: Klucel (hydroxypropylcellulose) (HPC)) was 100 % of control. The T/C [12] was 91 % of control, the T/C (dose: 200.0 mg/kg/injection, schedule: Q04DX002 (ip), vehicle: Klucel (hydroxypropylcellulose) (HPC)) was 107 % of control and the T/C [13] was 95 % of control. The T/C (dose: 400.0 mg/kg/injection, schedule: Q04DX002 (ip), vehicle: Klucel (hydroxypropylcellulose) (HPC)) was 96 % of control.
`O=S(=O)(CCl)Nc1ccncc1` was tested, and the T/C (dose: 100.0 mg/kg/injection, schedule: Q04DX013 (ip), vehicle: carboxymethylcellulose (CMC)) was 101 % of control, the T/C (dose: 200.0 mg/kg/injection, schedule: Q04DX013 (ip), vehicle: carboxymethylcellulose (CMC)) was 100 % of control and the T/C (dose: 400.0 mg/kg/injection, schedule: Q04DX013 (ip), vehicle: carboxymethylcellulose (CMC)) was 100 % of control.
In the case of `CCCCOC(=O)C1C=C(N)CCC1` (configuration not stated), the T/C [11] was 92 % of control, the T/C [12] was 89 % of control and the T/C [13] was 94 % of control.
In the case of `CCOC(=O)C1/C(=N\N=C2\c3c(nnp3N(CCOS(C)(=O)=O)CCOS(C)(=O)=O)C(C(=O)OCC)C(c3ccc(OC(C)=O)cc3)C2C(=O)OCC)c2c(nnp2N(CCOS(C)(=O)=O)CCOS(C)(=O)=O)C(C(=O)OCC)C1c1ccc(OC(C)=O)cc1` (configuration not stated), the T/C (dose: 50.0 mg/kg/injection, schedule: Q01DX001 (ip), vehicle: saline) was 103 % of control, the T/C [1] was 109 % of control and the T/C [3] was 109 % of control. For the same compound, the T/C [4] was 107 % of control.
With `O=C(O)c1cc(=O)cc(C(=O)O)[nH]1` the T/C (dose: 100.0 mg/kg/injection, schedule: Q01DX009 (ip), vehicle: Klucel (hydroxypropylcellulose) (HPC)) was 102 % of control, the T/C [5] was 102 % of control and the T/C (dose: 200.0 mg/kg/injection, schedule: Q01DX009 (ip), vehicle: Klucel (hydroxypropylcellulose) (HPC)) was 96 % of control. The T/C [6] was 96 % of control, the T/C (dose: 400.0 mg/kg/injection, schedule: Q01DX009 (ip), vehicle: Klucel (hydroxypropylcellulose) (HPC)) was 92 % of control and the T/C [7] was 104 % of control.
